Our source for the IC50 and melting point values is US6964957B2, “Fused pyrazole compounds, pharmaceutical compositions, and methods for modulating or inhibiting ERAB or HADH2 activity” (Agouron Pharmaceuticals, Inc., priority 2000, dated 2005).

The target in data set [1] is T1, ERAB (L-3-hydroxyacyl-CoA dehydrogenase) (Homo sapiens, UniProt Q99714).
T1 sequence (Q99714 1-261): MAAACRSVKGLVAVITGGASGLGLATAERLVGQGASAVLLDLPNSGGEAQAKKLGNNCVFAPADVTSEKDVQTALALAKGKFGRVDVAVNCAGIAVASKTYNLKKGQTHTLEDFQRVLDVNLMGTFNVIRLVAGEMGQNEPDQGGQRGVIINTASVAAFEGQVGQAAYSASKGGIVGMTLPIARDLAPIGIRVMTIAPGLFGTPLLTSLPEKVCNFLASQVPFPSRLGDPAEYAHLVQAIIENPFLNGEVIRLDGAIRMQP
Briefly: ERAB enzyme assay (loss of NADH absorbance at 340 nm, acetoacetyl-CoA as substrate). It is filed as biochemical. The note with it: 2.5 nM enzyme preincubated with inhibitor 400 seconds at 30° C., pH 7.5, 36 uM NADH, 2% DMSO; started with acetoacetyl-CoA (38 uM). Here is the method: The activity of ERAB (L-3-hydroxyacyl-CoA dehydrogenase) in the reverse direction was determined by a modified version of a method previously described (Binstock et al., Methods Enzymol., 71, 403-411 (1981)). This method is based on the enzyme-catalyzed loss of NADH absorbance at 340 nm with a change in the millimolar extinction coefficient of 6.22 mM^−1 cm^−1. The IC50 value for compounds of the Formula I were determined spectrophotometrically by monitoring the […] with acetoacetyl-CoA as substrate and are reported in Table 1. Assay conditions were 25 mM MOPS, 250 mM NaCl, 2% DMSO, 2.5 mM TCEP, pH 7.5, 30° C. NADH and ERAB were included at 40 uM and 2.5 nM, respectively. Stock solutions of ERAB, prepared in assay buffer, were 1 uM and contained 100 uM NADH for enzyme stability. The assay was run as follows: Enzyme (2.5 nM) was preincubated with inhibitor (without acetoacetyl-CoA present) for 400 seconds at 30° C. in the presence of 36 uM NADH, 25 mM MOPS, pH 7.5, 250 mM NaCl, 2%(v/v) DMSO, and 2.5 mM TCEP. The reaction was initiated by addition of substrate (acetoacetyl-CoA) (38 uM). Reduction of NADH was monitored at 340λ. Initial rates were calculated over a time frame where less than 10% of substrates had been consumed in an uninhibited reaction. For Ki, app determination, inhibitors were added during the preincubation stage from DMSO stock solutions for a final and constant 2% DMSO concentration. Initial rates were calculated and fitted, using non-linear fitting techniques, to the Michaelis equation for enzyme inhibition. The IC50 value was determined by non-linear regression analysis using KaleidaGraph (obtained from Synergy Software, Reading, Pa.).

As a reminder, the IC50 is the point on the concentration scale where inhibition reaches its midpoint. For orientation: melting point means the temperature of the solid-liquid transition. `CC(c1ccccc1)n1cnc2[nH]ncc2c1=O` (stereo not shown) [LVII, 5-(1-Phenyl-ethyl)-1,5-dihydro-pyrazolo[3,4-d]pyrimidine-4-one] gave a melting point of 210 to 214 °C. Also, the IC50 in data set [1] was determined as 494000 nM. Regarding `CC(c1ccccc1)n1cnc2[nH]ncc2c1=S` (stereo not shown) [LVIIIa, 5-(1-Phenyl-ethyl)-1,5-dihydro-pyrazolo[3,4-d]pyrimidine-4-thione], the melting point was 170 to 174 °C. For the same compound, the IC50 in data set [1] turned out to be 22000 nM. For `O=C(C(c1ccccc1)n1cnc2[nH]ncc2c1=O)N1CCCCCC1` (stereo not shown) [L], the IC50 in data set [1] was 7100 nM. `O=C(OC1CCCCC1)C(c1ccccc1)n1cnc2[nH]ncc2c1=S` (stereo not shown) [XIIa, 2-Phenyl-(4-thioxo-1,4-dihydro-pyrazolo[3,4-d]pyrimidin-5-yl)-acetic acid cyclohexyl ester]: the melting point lay within 170 to 173 °C. The IC50 in data set [1] was 1200 nM. For `O=C(O)C(c1ccccc1)n1cnc2[nH]ncc2c1=S` (stereo not shown) [XIVa, 2-Phenyl-(4-thioxo-1,4-dihydro-pyrazolo [3,4-d]pyrimidin-5-yl)acetic acid] the same measures were 95 to 98 °C and 514000 nM. For the compound `O=C(OC1CCCCC1)C(c1ccccc1)n1cnc2[nH]ncc2c1=O` (stereo not shown) [XIa, (4-Oxo-1,4-dihydro-pyrazolo[3,4-d]pyrimidin-5-yl)-phenyl-acetic acid cyclohexyl ester], the melting point was in the range of 176 to 180 °C. Besides, the IC50 in data set [1] worked out at 30000 nM.

On to `O=C(C(c1ccccc1)n1cnc2[nH]ncc2c1=S)N1CCCCCC1` (stereo not shown) [XVIa, 1-Azepan-1-yl-2-phenyl-2-(4-thioxo-1,4-dihydro-1,4-dihrdropyrazolo[3,4-d]pyrimidin-5-yl)-ethanone], for which, in data set [1], the IC50 stood at 97 nM.

In turn, `CON(C)C(=O)C(c1ccccc1)n1cnc2[nH]ncc2c1=S` (stereo not shown) [XVIb, N-Methoxy-N-methyl-2-phenyl-2-(4-thioxo-1,4-dihydro-1,4-dihydro-pyrazolo[3,4-d]pyrimidin-5-yl)-ethanone] registered a melting point of 82 to 86 °C. Also, the IC50 in data set [1] turned out to be 1500 nM. Take `O=C(C(c1ccccc1)n1cnc2[nH]ncc2c1=S)N1CCCC(O)C1` (stereo not shown) [XVIc, 1-(3-Hydroxy-piperidin-1-yl)-2-phenyl-2-(4-thioxo-1,4-dihydro-1,4-dihydro-pyrazolo[3,4-d]pyrimidin-5-yl)-ethanone]: in data set [1], the 50% inhibitory concentration (IC50) was 1800 nM.

In turn, `O=C(C(c1ccccc1)n1cnc2[nH]ncc2c1=S)N1CCCCCCC1` (stereo not shown) [XVIe, 1-Azocan-1-yl-2-phenyl-2-(4-thioxo-1,4-dihydro-1,4-dihydropyrazolo[3,4-d]pyrimidin-5-yl)-ethanone] registered a melting point of 92 to 95 °C. Moreover, the IC50 in data set [1] came to 96 nM. `O=C(C(c1ccccc1)n1cnc2[nH]ncc2c1=S)N1CCC(O)(c2ccccc2)CC1` (stereo not shown) [XVIf, 1-(4-Hydroxy-4-phenyl-piperidin-1-yl)-2phenyl-2-(4-thioxo-1,4-dihydro-1,4-dihydro-pyrazolo[3,4-d]pyrimidin-5-yl)-ethanone] registered a melting point of 142 to 146 °C. For the same compound, the IC50 in data set [1] came to 81 nM.

Compound `O=C(C(c1ccccc1)n1cnc2[nH]ncc2c1=S)N1CCC(O)(c2ccc(Br)cc2)CC1` (stereo not shown) [XVIg] showed a melting point of 155 to 160 °C. Further, in data set [1], the IC50 stood at 82 nM.

As to `CC(=O)C1(c2ccccc2)CCN(C(=O)C(c2ccccc2)n2cnc3[nH]ncc3c2=S)CC1` (stereo not shown) [XVIh, 1-(4-Acetyl-4-phenyl-piperidin-1-yl)-2-phenyl-2-(4-thioxo-1,4-dihydro-pyrazolo[3,4-d]pyrimidin-5-yl)-ethanone], in data set [1], the 50% inhibitory concentration (IC50) stood at 766 nM. As to `O=C(C(c1ccccc1)n1cnc2[nH]ncc2c1=S)N1CCN(c2ccccn2)CC1` (stereo not shown) [XVIi, 2-Phenyl-1-(4-pyridin-2-yl-piperazin-1-yl)-2-(4-thioxo-1,4-dihydro-pyrazolo[3,4-d]pyrimidin-5-yl)-ethanone], the melting point lay in the range of 242 to 246 °C. The IC50 in data set [1] is 389 nM.

Regarding `O=C(C(c1ccccc1)n1cnc2[nH]ncc2c1=S)N1CCN(c2ccccc2)CC1` (stereo not shown) [XVIj, 2-Phenyl-1-(4-phenyl-2-yl-piperazin-1-yl)-2-(4-thioxo-1,4-dihydro-pyrazolo[3,4-d]pyrimidin-5-yl)-ethanone], the melting point lay in the range of 241 to 245 °C. Further, the IC50 in data set [1] is 218 nM. In the case of `COc1ccc(N2CCN(C(=O)C(c3ccccc3)n3cnc4[nH]ncc4c3=S)CC2)cc1` (stereo not shown) [XVIk, 1-[4-(4-Methoxy-phenyl)-piperazin-1-yl]-2-phenyl-2-(4-thioxo-1,4-dihydro-pyrazolo[3,4-d]pyrimidin-5-yl)-ethanone], the melting point lay within 114 to 118 °C. Besides, in data set [1], the IC50 turned out to be 300 nM.

`O=C(C(c1ccccc1)n1cnc2[nH]ncc2c1=S)N1CCC(O)(c2ccccn2)CC1` (stereo not shown) [XVIm, 1-(4-Hydroxy-3′,4′,5′,6′-tetrahydro-2H-[2,4]bipyridinyl-1′-yl]-2-phenyl-2-(4-thioxo-1,4-dihydro-pyrazolo[3,4-d]pyrimidin-5-yl)-ethanone]: the melting point was 138 to 142 °C. The 50% inhibitory concentration (IC50) in data set [1] is 279 nM. `CCCCC1(O)CCN(C(=O)C(c2ccccc2)n2cnc3[nH]ncc3c2=S)CC1` (stereo not shown) [XVIn, 1-(4-Butyl-4-hydroxy-piperidin-1-yl)-2-phenyl-2-(4-thioxo-1,4-dihydro-pyrazolo[3,4-d]pyrimidin-5-yl)-ethanone]: the melting point was in the range of 98 to 102 °C. Take `CC1(O)CCN(C(=O)C(c2ccccc2)n2cnc3[nH]ncc3c2=S)CC1` (stereo not shown) [XVIp, 1-(4-Methyl-4-hydroxy-piperidin-1-yl)-2-phenyl-2-(4-thioxo-1,4-dihydro-pyrazolo[3,4-d]pyrimidin-5-yl)-ethanone]: the melting point was 140 to 144 °C. Further, the 50% inhibitory concentration (IC50) in data set [1] came out at 210 nM. As to `CCN(C(=O)C(c1ccccc1)n1cnc2[nH]ncc2c1=S)C(C)C` (stereo not shown) [XVIq, N-Ethyl-N-isopropyl-2-phenyl-2-(4-thioxo-1,4-dihydro-pyrazolo[3,4d]pyrimidin-5-yl)-acetamide], the IC50 in data set [1] came out at 2800 nM. The compound `CCN(CC)C(=O)C(c1ccccc1)n1cnc2[nH]ncc2c1=S` (stereo not shown) [XVIr, N,N-Diethyl-2-phenyl-2-(4-thioxo-1,4-dihydro-pyrazolo[3,4-d]pyrimidin-5-yl)-acetamide] displayed a melting point of 143 to 146 °C. Further, in data set [1], the IC50 came out at 93 nM.

The compound `C=CCOc1cccc(C(C(=O)N2CCC(O)(c3ccccc3)CC2)n2cnc3[nH]ncc3c2=S)c1` (stereo not shown) [XVIs, 2-(3-Allyoxy-phenyl)-1-(4-hydroxy-4-phenyl-piperidin-1-yl)-2-(4-thioxo-1,4-dihydro-pyrazolo[3,4-d]pyrimidin-5-yl)-ethanone] displayed a melting point of 116 to 120 °C. For the same compound, the half-inhibitory concentration (IC50) in data set [1] is 406 nM. `C=CCOc1cccc(C(C(=O)N2CCCCCC2)n2cnc3[nH]ncc3c2=S)c1` (stereo not shown) [XVIt, 2-(3-Allyoxy-phenyl)-1-azepan-1-yl-2-(4-thioxo-1,4-dihydro-pyrazolo[3,4-d]pyrimidin-5-yl)-ethanone] displayed a melting point of 75 to 80 °C. The IC50 in data set [1] turned out to be 345 nM.

Regarding `C=CCOc1cccc(C(C(=O)OC2CCCCC2)n2cnc3[nH]ncc3c2=S)c1` (stereo not shown) [XXIII], the half-maximal inhibitory concentration (IC50) in data set [1] worked out at 11000 nM. For the compound `O=C(C(c1ccccc1)n1cnc2[nH]ncc2c1=S)N1CCCCC1` (stereo not shown) [XXVa], in data set [1], the IC50 was 774 nM. In the case of `O=C(C(c1ccccc1)n1cnc2[nH]ncc2c1=S)N1CCC(c2ccccc2)CC1` (stereo not shown) [XXVb], in data set [1], the half-inhibitory concentration (IC50) turned out to be 216 nM.

With `O=C(C(c1cccc(O)c1)n1cnc2[nH]ncc2c1=S)N1CCCCCC1` (stereo not shown) [XXVc], in data set [1], the concentration for half-maximal inhibition (IC50) came to 51 nM. `CCCCC1(O)CCN(C(=O)C(c2ccccc2)n2cnc3[nH]ncc3c2=S)CC1` (stereo not shown) [XXVd]: the IC50 in data set [1] amounted to 71 nM. The same measure, in the same setting: then `CN(C(=O)C(c1ccccc1)n1cnc2[nH]ncc2c1=S)c1ccccc1` (stereo not shown) [XXVe], with 749 nM.
